The values below are quoted from earlier work in patent publication US20100136106A1, “Modified Release Famciclovir Compositions” (priority 2005, published 2010).

Like-named read-outs stand apart in the source and are kept apart here. Some results are limits rather than exact numbers.

For orientation: Cmax means the highest concentration seen after dosing. By Tmax is commonly meant the time at which the peak concentration occurs. Usually half-life stands for how long it takes for the measured level to halve.

The conditions of series [1]: for metabolite, % of the dose in the urine: in vivo, po.
For series [2] the following is noted: for solubility in water: 25° C.
In series [3] the test system is viral DNA polymerase. As to conditions: competitively with deoxyguanine triphosphate.
For series [4] the following is noted: below 85% relative humidity.
The conditions of series [5]: for AUC(0-∞) / Cmax / Tmax: healthy male volunteers.
Assay in series [6]: not given
This is another data set of the same source.

Assay in series [7]: not given
This is another data set of the same source.

Series [8] has as its system cytochrome P450. The following applies: human liver microsomes. On the technique in general: Microsomes from liver hold many membrane-bound enzymes, among them those of drug oxidation.
The conditions of series [9]: single 500 mg oral dose of radiolabeled famciclovir.
The conditions of series [10]: 500 mg famciclovir t.i.d. for 7 days.
For series [11] the following is noted: 5 mg/kg radiolabeled penciclovir, 1-hour infusion.
The conditions of series [12]: intravenous penciclovir.
The mark [13] stands for this setting: 500 mg famciclovir single oral dose, patients with herpes zoster.

As for `CC(=O)OCC(CO)CCn1cnc2c(=O)[nH]c(N)nc21` (stereo not drawn) [monoacetylated penciclovir], the “metabolite, % of the dose in the urine” value in [1] is reported as less than 0.5%.

`Nc1ncc2ncn(CCC(CO)CO)c2n1` [6-deoxy penciclovir]: the “metabolite, % of the dose in the urine” value in series [1] is given as 5%.

For the molecule `CC(=O)OCC(CO)CCn1cnc2cnc(N)nc21` (stereo not drawn) [6-deoxy monoacetylated penciclovir], the “metabolite, % of the dose in the urine” value in series [1] is less than 0.5%.

Take `CC(=O)OCC(CCn1cnc2cnc(N)nc21)COC(C)=O` [monohydrate]: the solubility in water in [2] (monohydrate that precipitates) was 2-3 % w/v.

For penciclovir triphosphate, in series [3], the “inhibition of viral DNA polymerase” value is “inhibit viral DNA polymerase competitively”.

On to `CC(=O)OCC(CCn1cnc2cnc(N)nc21)COC(C)=O` [famciclovir, 2-[2-(2-amino-9H-purin-9-yl)ethyl]-1,3-propanediol diacetate], for which, in [2], the solubility in acetone entry is “freely soluble”, the solubility in ethanol entry was “sparingly soluble”, the solubility in isopropanol result is listed as “sparingly soluble” and the solubility in methanol entry is given as “freely soluble”. Moreover, the solubility in water in series [2] (initially) is greater than 25 % w/v. Moreover, the “partition coefficient P” value (octanol/phosphate buffer (pH 7.4)) is 2.08. Besides, the “partition coefficient P” value (octanol/water (pH 4.8)) is listed as 1.09. For the same molecule, the hygroscopicity entry in [4] is listed as “not hygroscopic”. Further, in series [5] (125 mg single oral dose), the “AUC(0-∞)” value was 2240 ng·h/mL, the Cmax is 800 ng/mL and the Tmax was 54 min. In series [5] (250 mg single oral dose), the “AUC(0-∞)” value was 4480 ng·h/mL, the Cmax was 1600 ng/mL and the Tmax was 54 min. Besides, in series [5] (500 mg single oral dose), the “AUC(0-∞)” value is 8950 ng·h/mL, the maximum concentration (Cmax) was 3300 ng/mL and the Tmax was 54 min. Further, in [6] (setting [13]), the “AUC (mean±SD)” value is 12100 ± 1700 ng·h/mL, the “Cmax (mean±SD)” value was 4000 ± 700 ng/mL and the “Tmax (mean±SD)” value is 42 ± 12 min. In addition, the “decrease in Cmax” value in [7] (given 2 hours after a meal compared to 2 hours before a meal) is 18%. For the same molecule, in series [7] (regular doses), the “effect of food on absorption” value is given as “does not affect the extent of absorption”. Further, the “role of cytochrome P450 in famciclovir metabolism” value in [8] is “does not play an important role”. Further, the “famciclovir detected in plasma or urine” value in series [1] (oral administration of famciclovir) is reported as “Little or no”. Moreover, in series [9] (first 6 hours), the “administered radiolabeled dose collected in urine” value is given as “Approximately 60%”. Also, in series [9] (over 72 hours), the “administered radioactivity recovered in feces” value is given as 27% and the “administered radioactivity recovered in urine” value was 73%.

As to `Nc1nc2c(ncn2CCC(CO)CO)c(=O)[nH]1` [penciclovir], the “dose proportionality of penciclovir concentrations” value in [5] (famciclovir dose range of 125 mg to 750 mg, single dose) is reported as “increased in proportion to dose”. For the same molecule, the “AUC of penciclovir greater in patients with herpes zoster as compared to healthy volunteers” value in [6] (500 mg famciclovir oral) is “approximately 35%”. Moreover, the half-life in series [6] (seven patients with herpes zoster) was 180 ± 66 min. In addition, in [10], the accumulation of penciclovir result is reported as “no accumulation”. Further, the “decrease of penciclovir Cmax with food” value in series [7] (capsule formulation of famciclovir with food (approximately 910 Kcal and 26% fat)) is listed as “approximately 50%”. Further, the figures for the “share of the radioactivity excreted in the urine” value in series [11] and in [9] were 91% and 82%, respectively. In series [11] (first 6 hours), the “dose excreted in urine” value is 83%. The “administered radioactivity recovered in urine” value in series [11] (over 24 hours) is “Approximately 94%”. Further, in series [12], the “renal clearance as share of total plasma clearance” value is on record as 74.5±8.8%.
